Structures can show the parent of a compound that is named as a salt.
Columns and labels:
NPY2 receptors = target: T1, NPY2 receptors (Homo sapiens, UniProt P49146); assay: Neuropeptide Y receptor binding assay (125I-PYY, KAN-TS cell membranes); details: 10 μM compound; for inhibition at 10 µM: read-out: NPY-2@10, % Inh
T1 construct: Cell Membranes from KAN-TS cells having NPY2 receptors; endogenous in cells; host or cells: KAN-TS cells (membranes)
T1 sequence (P49146 1-381): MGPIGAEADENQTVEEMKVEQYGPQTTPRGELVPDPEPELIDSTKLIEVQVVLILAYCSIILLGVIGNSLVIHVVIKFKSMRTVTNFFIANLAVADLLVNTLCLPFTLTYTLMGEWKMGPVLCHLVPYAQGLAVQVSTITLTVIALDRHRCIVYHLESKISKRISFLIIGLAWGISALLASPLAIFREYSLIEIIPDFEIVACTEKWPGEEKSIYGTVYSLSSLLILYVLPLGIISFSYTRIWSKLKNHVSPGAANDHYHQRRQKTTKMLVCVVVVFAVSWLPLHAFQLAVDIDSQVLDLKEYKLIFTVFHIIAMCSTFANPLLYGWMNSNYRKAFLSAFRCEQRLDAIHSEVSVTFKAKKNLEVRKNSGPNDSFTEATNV
Method in brief: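 Membranes from KAN-TS cells competed with 125I-PYY in binding buffer containing BSA, test compound at 10 μM final, 1 hr at room temperature. Nonspecific binding defined with 1 μM PYY final. Tubes centrifuged, washed with PBS and bound radioactivity gamma-counted.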

human V1a receptor = human V1a receptor (Homo sapiens, UniProt P37288); assay: V1a binding assay (3H-AVP displacement, HEK-293 membranes); design: expressed in transfected cells; host or cells: HEK-293 (membranes); details: for inhibition at 1 µM: read-out: V1a@1.0, % Inh; for inhibition at 0.1 µM: 0.1 μM compound, read-out: V1a % Inh @0.1
Method in brief: (§1)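 Each well: membranes, test compound (from 10% DMSO working stock), 3H-AVP. Buffer pH 7.5 with 0.1% BSA and protease inhibitors; 1 h, room temperature. Non-specific binding: 1.25 μM AVP. Filter, wash, count.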

human V1b receptor = target: T2, human V1b receptor (Homo sapiens, UniProt P47901); assay: V1b binding assay (3H-AVP displacement, HEK-293 membranes); design: expressed in transfected cells; host or cells: HEK-293 (membranes); details: for inhibition at 10 µM: 10 μM compound, read-out: V1b % Inh @10; for inhibition at 1 µM: read-out: V1b@1.0, % Inh
T2 sequence (P47901 1-424): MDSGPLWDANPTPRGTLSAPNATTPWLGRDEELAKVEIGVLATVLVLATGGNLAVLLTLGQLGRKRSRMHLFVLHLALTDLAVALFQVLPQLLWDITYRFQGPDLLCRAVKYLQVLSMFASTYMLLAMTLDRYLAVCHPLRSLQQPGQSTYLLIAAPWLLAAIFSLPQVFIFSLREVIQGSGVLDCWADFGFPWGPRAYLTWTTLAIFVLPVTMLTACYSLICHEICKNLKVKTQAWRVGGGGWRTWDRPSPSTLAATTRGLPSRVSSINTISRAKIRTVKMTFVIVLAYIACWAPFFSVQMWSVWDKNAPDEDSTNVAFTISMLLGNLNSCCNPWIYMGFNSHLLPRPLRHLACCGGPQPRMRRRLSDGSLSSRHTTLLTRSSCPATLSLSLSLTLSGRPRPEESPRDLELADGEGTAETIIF
Method in brief: as §1

human V2 receptor = human V2 receptor (Homo sapiens, UniProt P30518); assay: V2 binding assay (3H-AVP displacement, HEK-293 membranes); design: expressed in transfected cells; host or cells: HEK-293 (membranes); details: 1.0 μM compound; for inhibition at 1 µM: read-out: V2@1.0, % Inh
Method in brief: as §1

Sequence of human V1a receptor (P37288 whole entry): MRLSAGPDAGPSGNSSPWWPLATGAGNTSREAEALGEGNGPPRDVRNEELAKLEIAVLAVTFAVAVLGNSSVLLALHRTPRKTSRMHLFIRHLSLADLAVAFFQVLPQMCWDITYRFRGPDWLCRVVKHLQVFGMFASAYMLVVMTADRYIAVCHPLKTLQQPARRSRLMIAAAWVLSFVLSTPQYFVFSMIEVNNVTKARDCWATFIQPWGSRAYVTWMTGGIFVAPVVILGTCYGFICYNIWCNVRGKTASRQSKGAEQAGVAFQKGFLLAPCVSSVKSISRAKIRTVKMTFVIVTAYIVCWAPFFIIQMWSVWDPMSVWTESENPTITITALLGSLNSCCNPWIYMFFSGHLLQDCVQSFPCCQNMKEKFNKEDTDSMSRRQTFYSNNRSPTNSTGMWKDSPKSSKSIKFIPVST
Sequence of human V2 receptor (P30518 whole entry): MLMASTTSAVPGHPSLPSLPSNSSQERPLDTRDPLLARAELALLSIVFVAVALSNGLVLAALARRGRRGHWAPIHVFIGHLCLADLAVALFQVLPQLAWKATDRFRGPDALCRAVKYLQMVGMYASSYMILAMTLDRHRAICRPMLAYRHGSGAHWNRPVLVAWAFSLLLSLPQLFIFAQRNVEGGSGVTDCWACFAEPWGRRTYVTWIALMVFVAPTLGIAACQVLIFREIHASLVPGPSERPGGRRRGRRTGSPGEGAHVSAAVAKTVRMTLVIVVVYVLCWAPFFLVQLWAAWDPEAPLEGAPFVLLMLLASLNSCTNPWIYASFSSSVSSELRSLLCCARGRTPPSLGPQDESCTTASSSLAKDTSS

| SMILES | inhibition at 10 µM (NPY2 receptors) [%] | inhibition at 1 µM (human V1a receptor; 1.0 μM compound) [%] | inhibition at 10 µM (human V1b receptor) [%] | inhibition at 1 µM (human V2 receptor) [%] | IC50 (human V1a receptor) [nM] | inhibition at 1 µM (human V1b receptor; 1.0 μM compound) [%] | also measured |
| --- | --- | --- | --- | --- | --- | --- | --- |
| O=c1[nH]c2ccccc2n1C1CCN(C(=S)NCc2ccc(Cl)cc2Cl)CC1 [Compound 17] | 15 | 12 | 7 | 14 | – | – | – |
| CCN(CC)CCn1c(=O)n(C2CCN(C(=S)NC(Cc3ccccc3)C(=O)O)CC2)c2ccccc21 [Compound 43, 1-(N1-Piperidinocarbothioyl-(2-phenyl-1-L-carboxy)amino-4-yl)-3-(2-diethyaminoethyl)-1,3-dihydrobenzimidazol-2-one] | 13 | 39 | 16 | 10 | – | – | – |
| COC(=O)C(Cc1ccccc1)NC(=S)N1CCC(n2c(=O)n(CCCN3CCCC3)c3ccccc32)CC1 [Compound 86, 1-[(N1-Piperidinocarbothioyl-(2-phenyl-1-L-carboxymethyl)amino-4-yl)-4-yl]-3-(3-pyrrolidinylpropyl)-1,3-dihydrobenzimidazol-2-one] | 10 | – | – | 3 | 13 | – | IC50 (human V1b receptor): 1190 nM |
| COc1ccccc1NC(=S)N1CCC(n2c(=O)n(CCCN3CCCC3)c3ccccc32)CC1 [Compound 87, 1-[(N1-Piperidinocarbothioyl-(2-methoxyphenyl)amino)-4-yl]-3-(3-pyrrolidinylpropyl)-1,3-dihydrobenzimidazol-2-one] | – | – | – | – | – | – | NPY-2@10, % Inh (NPY2 receptors): 13%; V1a@1.0, % Inh (human V1a receptor; 1.0 μM compound): 30%; V1b@1.0, % Inh (human V1b receptor; 1.0 μM compound): 23%; V2@1.0, % Inh (human V2 receptor): 3% |
| O=c1[nH]c2ccccc2n1C1CCN(C(=S)NCCc2cccc(Cl)c2)CC1 [Compound 23] | 15 | 56 | 0 | 12 | – | – | – |
| COC(=O)[C@@H](Cc1c[nH]c2ccccc12)NC(=S)N1CCC(n2c(=O)[nH]c3ccccc32)CC1 [Compound 50] | 16 | 8 | 15 | 0 | – | – | – |
| CCCc1ccccc1NC(=O)N1CCC(n2c(=O)n(CCCN3CCCCC3)c3ccccc32)CC1 [Compound 117, 1-[(N1-piperidinocarbonyl-2-propylphenylamino)-4-yl]-3-(3-N-piperidinylpropyl)-1,3-dihydrobenzimidazol-2-one] | 1 | 68 | – | 15 | 331 | 43 | – |
| COc1ccc(C(NC(=S)N2CCC(n3c(=O)[nH]c4ccccc43)CC2)c2ccc(OC)cc2)cc1 [Compound 66, 1-[(N1-Piperidinocarbothioyl-1,1-di(p-anisyl)methylamino)-4-yl]-1,3-dihydrobenzimidazol-2-one] | 21 | – | 11 | 0 | – | – | inhibition at 0.1 µM (human V1a receptor): 15% |
| O=c1[nH]c2ccccc2n1C1CCN(C(=S)NCc2cccc3ccccc23)CC1 [Compound 15] | 14 | 17 | 7 | 10 | – | – | – |
| CCN(CC)CCn1c(=O)n(C2CCN(C(=O)Nc3ccccc3C)CC2)c2ccccc21 [Compound 92, 1-[(N1-Piperidinocarbonyl-2-methylphenylamino)-4-yl]-3-(2-N,Ndiethylaminoethyl)-1,3-dihydrobenzimidazol-2-one] | 0 | 3 | – | 3 | – | 5 | – |
| O=C(Nc1ccccc1F)N1CCC(n2c(=O)n(CCCN3CCCCC3)c3ccccc32)CC1 [Compound 114, 1-[(N1-piperidinocarbonyl-2-fluorophenylamino)-4-yl]-3-(3-N-piperidinylpropyl)-1,3-dihydrobenzimidazol-2-one] | 17 | 1 | – | 2 | – | 4 | – |
| O=c1[nH]c2ccccc2n1C1CCN(C(=S)NCc2ccc3c(c2)OCO3)CC1 [Compound 16] | 15 | 40 | 15 | 0 | – | – | – |

Second part, led by results:

| inhibition at 10 µM (NPY2 receptors) [%] | inhibition at 1 µM (human V1a receptor; 1.0 μM compound) [%] | inhibition at 10 µM (human V1b receptor) [%] | inhibition at 1 µM (human V2 receptor) [%] | IC50 (human V1a receptor) [nM] | inhibition at 1 µM (human V1b receptor; 1.0 μM compound) [%] | SMILES | also measured |
| --- | --- | --- | --- | --- | --- | --- | --- |
| 22 | 42 | 13 | 21 | – | – | O=c1[nH]c2ccccc2n1C1CCN(C(=S)NC(c2ccccc2)c2ccc(Cl)cc2)CC1 (stereo not drawn) [Compound 34] | – |
| 89 | – | – | 0 | 16 | – | O=c1n(CCCN2CCCC2)c2ccccc2n1C1CCN(C(=S)NC(c2ccccc2)c2ccccc2)CC1 [Compound 73, 1-[(N1-piperidinocarbothioylbenzhydrylamino)-4-yl]-3-(3-N-pyrrolidinopropyl)-1,3-dihydro-benzimidazol-2-one] | IC50 (human V1b receptor): 300 nM |
| 11 | – | 66 | 0 | – | – | COc1ccc(C(NC(=S)N2CCC(n3c(=O)n(CCCN)c4ccccc43)CC2)c2ccc(OC)cc2)cc1 [Compound 68, 1-[(N1-Piperidinocarbothioyl-1,1-di(p-anisyl)methylamino)-4-yl]-3-(3-aminopropyl)-1,3-dihydrobenzimidazol-2-one Hydrochloride] | inhibition at 0.1 µM (human V1a receptor): 46%; IC50 (human V1b receptor): 4600 nM |
| 96 | – | – | 14 | 18 | 48 | O=c1n(CCCCN2CCCC2)c2ccccc2n1C1CCN(C(=S)NC(c2ccccc2)c2ccccc2)CC1 [Compound 104] | – |
| 89 | – | – | 18 | 4 | – | O=c1n(CCCN2CCCCC2)c2ccccc2n1C1CCN(C(=S)NC(c2ccccc2)c2ccccc2)CC1 [Compound 81, 1-[(N1-piperidinocarbothioylbiphenylmethylamino)-4-yl]-3-(3-N-piperidinylpropyl)-1,3-dihydrobenzimidazol-2-one] | IC50 (human V1b receptor): 76 nM |
| 56 | 64 | – | 0 | – | 24 | CCN(CC)CCn1c(=O)n(C2CCN(C(=O)NC(c3ccccc3)c3ccccc3)CC2)c2ccccc21 [Compound 91, 1-(N1-Piperidinocarbonyldiphenylmethylamino-4-yl)-3-(2-N,N-diethyaminoethyl)benzimidazol-2-one] | – |
| 10 | – | 30 | 0 | 79 | – | NCCCn1c(=O)n(C2CCN(C(=O)NC(c3ccccc3)c3ccccc3)CC2)c2ccccc21 [Compound 77, 1-[(N1-Piperidinocarbonyldiphenylmethylamino)-4-yl]-3-(3-aminopropyl)-1,3-dihydrobenzimidazol-2-one] | – |
| 17 | – | – | 0 | 49 | 48 | CN1CCCC1CCn1c(=O)n(C2CCN(C(=S)NC(c3ccccc3)c3ccccc3)CC2)c2ccccc21 (stereo not drawn) [Compound 93] | – |
| 100 | 20 | – | 20 | – | 25 | O=C(NC(c1ccccc1)(c1ccccc1)c1ccccc1)N1CCC(n2c(=O)n(CCCN3CCCCC3)c3ccccc32)CC1 [Compound 120, 1-[(N1-piperidinocarbonyltriphenylmethylamino)-4-yl]-3-(3-N-piperidinylpropyl)-1,3-dihydrobenzimidazol-2-one] | – |
| 73 | – | – | 8 | 22 | – | O=c1n(CCCN2CCOCC2)c2ccccc2n1C1CCN(C(=S)NC(c2ccccc2)c2ccccc2)CC1 [Compound 84, 1-[(N1-piperidinocarbothioylbiphenylmethylamino)-4-yl]-3-(3-morpholinopropyl)-1,3-dihydrobenzimidazol-2-one] | IC50 (human V1b receptor): 274 nM |
